{
  "source": "patent US20190247353A1",
  "about": "“ACNE STRAIN-SELECTIVE ANTIBACTERIAL AGENT” (MOMOTANI JUNTENKAN CO., LTD., priority 2016, published 2019)",
  "format_in_all_cases": "cell-based, Propionibacterium acnes",
  "key": {"[1]": {"tested_on": "HL053PA1 strain (RT4 strain) and HL110PA3 strain (RT6 strain)", "experiment": "Coculture test, coculturing strain suspension-1", "set-up": "dose or concentration left out as unconfirmed", "conditions": "pH 6.0, 2 days (FIG. 2a)", "source_text": "(§1) Acne bacteria strains (HL053PA1 strain (RT4 strain), HL043PA1 strain (RT5 strain), and HL110PA3 strain (RT6 strain)) were respectively precultured in the same manner as in Example 1.\n(§2) The HL053PA1 strain (RT4 strain) and the HL110PA3 strain (RT6 strain) were suspended in a modified GAM broth liquid medium (pH 6.0) respectively at a concentration of 5.0×10^4 cfu/mL. Similarly, the HL043PA1 strain (RT5 strain) and the HL110PA3 strain (RT6 strain) were suspended respectively at a concentration of 5.0×10^4 cfu/mL. The suspensions were respectively designated as coculturing strain suspensions-1, and -2.\n(§3) […] Using a sample to which only 0.5% of DMSO was added as a control, it was confirmed that the influence of the solvent on the growth of each bacterium strain could be neglected.\n(§4) The test sample was statically cultured under anaerobic conditions at 37° C. for 2 days. After the culture, part of the culture solution was cultured under anaerobic conditions on a GAM broth agar plate (pH 7) for 3 days. The bacterium strains were identified based on the morphology (particularly size) of the emerged colonies, and the viable cell count (cfu/mL) of each bacterium strain was measured. From the measurement results, the proportion of each bacterium strain in the entire microbial cells was calculated (FIG. 2)."}, "[2]": {"tested_on": "HL043PA1 strain (RT5 strain) and HL110PA3 strain (RT6 strain)", "experiment": "Coculture test, coculturing strain suspension-2", "set-up": "dose or concentration left out as unconfirmed", "conditions": "pH 6.0, 2 days (FIG. 2b)", "source_text": "as §1, §2, §3, §4"}, "[3]": {"tested_on": "HL110PA3 strain (RT6 strain)", "experiment": "Time course of viable cell count, HL110PA3 strain", "conditions": "15 μg/mL, pH 6.0, anaerobic 37° C., 0 to 44 hours (FIG. 1c)", "method": "To each strain suspension (pH 6.0, 5.0×10^5 cfu/mL) of the acne bacterium strain (HL053PA1 strain (RT4 strain), HL043PA1 strain (RT5 strain), and HL110PA3 strain (RT6 strain)) prepared in the same manner as in Example 1, pentadecanoic acid (C15:0) was added to mix together (final concentration of a fatty acid of 15 μg/mL, and final concentration of solvent DMSO of 0.5%), and each the mixture was statically cultured at 37° C. in a nitrogen atmosphere (anaerobic condition). Using a sample to which only DMSO was added at 0.5% (final concentration) as a control, it was confirmed that the influence of the solvent on the growth of each strain could be neglected.\nThe viable cell count in the culture solution was measured at 0, 2, 8, 18, 30 and 44 hours after the start of culturing. A viable cell count (cfu/mL) was calculated from the number of emerged colonies after culturing part of the culture solution on a GAM broth agar plate under anaerobic conditions for 3 days (FIG. 1)."}},
  "data": [
    {"smiles": "CCCCCCCCCCCCCCC(=O)O", "note": "[Pentadecanoic acid (C15:0), Pentadecanoic acid]", "values": [
      {"measurement": "Growth of the dominant strain in acne patients in coculture with RT6 strain", "setting": "[1]", "value": "suppressed selectively"},
      {"measurement": "Growth of the dominant strain in acne patients in coculture with RT6 strain", "setting": "[2]", "value": "suppressed selectively"},
      {"measurement": "Growth of the HL110PA3 strain (RT6 strain), viable cell count time course", "setting": "[3]", "value": "not suppressed"}
    ]}
  ]
}
